Like-named read-outs stand apart in the source and are kept apart here.
Key:
[1] = test system: human hematopoietic progenitor cells; assay: differentiation of hematopoietic progenitor cells other than megakaryocytic lineage; type: cell-based
human c-Mpl-Ba/F3 cells = assay: proliferation of cultured human c-Mpl-Ba/F3 cells; type: cell-based; conditions: concentration-dependent; maximum effect similar to that of rhTPO
[2] = Example 1 single dose study: pharmacokinetics; type: in vivo, human; conditions: for Cmax / half-life / AUC(0-inf) / AUC(0-t) / AUC / Tmax: both sexes, human; for Tmax: read-out: mean time to maximum plasma concentration (Tmax)
Experimental: A single-center, randomized, double-blind, dose-rising study to determine the safety, pharmacokinetics, and pharmacodynamics of single doses of 1-(3-chloro-5-{[4-(4-chlorothiophen-2-yl)-5-(4-cyclohexylpiperazin-1-yl)thiazol-2-yl]carbamoyl} pyridin-2-yl)piperadine-4-carboxylic acid (Formula I) in normal healthy volunteers was performed. The starting dose of the drug of Formula I was 1 mg (expressed as free base). Successive dose cohorts received 3, 10, 20, 50, 75 and 100 mg. The drug substance in the form of the monomaleate salt was suspended in Ora-Plus® (purified water, microcrystalline cellulose, sodium carboxymethylcellulose, xanthan gum, citric acid, sodium phosphate, simethicone, potassium sorbate and methylparaben), a commercially available oral suspending vehicle manufactured by Paddock Laboratories, Inc. Minneapolis, Minn. The Ora-Plus® was diluted with purified water, USP in a 1:1 suspension before being used to suspend the drug substance powder in preparation for oral administration. Prior to administration, 30 mL of the Ora-Plus®/water vehicle was added to each bottle, shaken and then consumed by the subject for each of the 3, 10, 50 and 75 mg dose cohorts. This was followed by an additional 30 mL of vehicle that was added to the bottle as a wash solution, shaken and then consumed by the subject. For the 20 mg and 100 mg dose cohorts, 60 mL of the Ora-Plus®/water vehicle was added to two (2) separate bottles containing the appropriate dose of drug (30 mL each bottle), shaken then consumed by the subjects. This was followed by an additional 60 mL of vehicle that was added as 30 ml to each bottle as a wash solution, shaken and then consumed by the subject.
A minimum of 9 subjects (male and female healthy volunteers) were enrolled in each cohort. The active group within each cohort included male and female volunteers. Three subjects per cohort received placebo. Each successive dose cohort was treated no sooner than 10 days after the previous group had received the study drug. […] Each subject received only 1 dose of Formula I. Intra-subject dose escalation and treating previously treated subjects in any cohort expansions were not allowed. All subjects were followed until their platelet count returned to normal levels (defined as ±20% of baseline).
Dose escalation was stopped if the PD limiting dose was reached or at the dose at which a dose limiting toxicity (DLT) was observed. The pharmacodynamic limit (PD limit) is defined as the dose at which there was a 50% increase in platelet count relative to the […] in the 6 actively treated subjects. The pharmacodynamic limiting dose (if reached), was repeated by running an additional cohort of 9 subjects (3 placebo and 6 active) at the dose level of the observed PD limit.
Pharmacokinetic sampling was taken. Pharmacodynamic evaluations of platelet counts and other hematological parameters were performed from study drug administration (Day 1) until 7 days after dosing. Outpatient follow-up for safety evaluation occurred until 14 days post-treatment for all subjects and longer for subjects requiring additional follow-up. For the repeat PD dose cohort or 100 mg dose cohort, the evaluations of platelet counts and other hematological parameters were performed each day from Day 1 through 14 and then every other day up to Day 28. If the PD dose limit was not reached at a dose of 75 mg, platelet count evaluations as outlined for the PD limiting dose were performed on the 100 mg dose cohort.

[3] = 4-week repeat dose toxicity in cynomolgus monkey; type: in vivo
[4] = pharmacokinetics after intravenous and oral administration in dogs; type: in vivo; conditions: dog, plasma
From the text: After a single intravenous administration of the drug of Formula I as the monomaleate salt to mice and dogs, plasma concentrations of Formula I decreased in a biphasic manner.

O=C(Nc1nc(-c2cc(Cl)cs2)c(N2CCN(C3CCCCC3)CC2)s1)c1cnc(N2CCC(C(=O)O)CC2)c(Cl)c1 [Formula I, 1-(3-chloro-5-{[4-(4-chlorothiophen-2-yl)-5-(4-cyclohexylpiperazin-1-yl)thiazol-2-yl]carbamoyl}pyridin-2-yl)piperadine-4-carboxylic acid]
differentiation of human hematopoietic progenitor cells other than those of megakaryocytic lineage [1]: did not promote the differentiation
proliferation of cultured human c-Mpl-Ba/F3 cells (human c-Mpl-Ba/F3 cells): stimulates the proliferation
Cmax ([2]; plasma, oral, 1 mg, single 1 mg daily dose, read-out: mean maximum plasma concentration (Cmax)): ~5.7 ng/mL
Cmax ([2]; plasma, oral, 3 mg, single 3 mg daily dose, read-out: mean maximum plasma concentration (Cmax)): 14 to 17 ng/mL
Cmax ([2]; plasma, oral, 10 mg, single 10 mg daily dose, (±20%), read-out: mean maximum plasma concentration (Cmax)): 53 to 69 ng/mL
Cmax ([2]; plasma, oral, 20 mg, single 20 mg daily dose, read-out: mean maximum plasma concentration (Cmax)): 121 to 168 ng/mL
Cmax ([2]; plasma, oral, 50 mg, single 50 mg daily dose, read-out: mean maximum plasma concentration (Cmax)): ~311 ng/mL
Cmax ([2]; plasma, oral, 75 mg, single 75 mg daily dose, read-out: mean maximum plasma concentration (Cmax)): ~473 ng/mL
Cmax ([2]; plasma, oral, 100 mg, 100 mg daily dose, read-out: mean maximum plasma concentration (Cmax)): ~388 ng/mL
Cmax ([2]; plasma, po, 1 mg, single oral dose 1 mg, healthy volunteers, final mean, read-out: Cmax): 5.67 ng/mL
half-life ([2]; plasma, po, 1 mg, single oral dose 1 mg, healthy volunteers, final mean, read-out: T½ (converted)): 21.5 h
Cmax ([2]; plasma, po, 1 mg, single oral dose 1 mg, healthy volunteers, preliminary mean, read-out: Cmax): 5.15 ng/mL
half-life ([2]; plasma, po, 1 mg, single oral dose 1 mg, healthy volunteers, preliminary mean, read-out: T½ (converted)): 18.9 h
Cmax ([2]; plasma, po, 3 mg, single oral dose 3 mg, healthy volunteers, preliminary mean, read-out: Cmax): 16 ng/mL
half-life ([2]; plasma, po, 3 mg, single oral dose 3 mg, healthy volunteers, preliminary mean, read-out: T½ (converted)): 17.5 h
Cmax ([2]; plasma, po, 10 mg, single oral dose 10 mg, healthy volunteers, preliminary mean, read-out: Cmax): 63.6 ng/mL
half-life ([2]; plasma, po, 10 mg, single oral dose 10 mg, healthy volunteers, preliminary mean, read-out: T½ (converted)): 18 h
Cmax ([2]; plasma, po, 20 mg, single oral dose 20 mg, healthy volunteers, preliminary mean, read-out: Cmax): 146 ng/mL
half-life ([2]; plasma, po, 20 mg, single oral dose 20 mg, healthy volunteers, preliminary mean, read-out: T½ (converted)): 12.9 h
Cmax ([2]; plasma, po, 50 mg, single oral dose 50 mg, healthy volunteers, final mean, read-out: Cmax): 312 ng/mL
half-life ([2]; plasma, po, 50 mg, single oral dose 50 mg, healthy volunteers, final mean, read-out: T½ (converted)): 19 h
Cmax ([2]; plasma, po, 50 mg, single oral dose 50 mg, healthy volunteers, preliminary mean, read-out: Cmax): 294 ng/mL
half-life ([2]; plasma, po, 50 mg, single oral dose 50 mg, healthy volunteers, preliminary mean, read-out: T½ (converted)): 14.8 h
Cmax ([2]; plasma, po, 75 mg, single oral dose 75 mg, healthy volunteers, final mean, read-out: Cmax): 474 ng/mL
half-life ([2]; plasma, po, 75 mg, single oral dose 75 mg, healthy volunteers, final mean, read-out: T½ (converted)): 18.8 h
Cmax ([2]; plasma, po, 75 mg, single oral dose 75 mg, healthy volunteers, preliminary mean, read-out: Cmax): 446 ng/mL
half-life ([2]; plasma, po, 75 mg, single oral dose 75 mg, healthy volunteers, preliminary mean, read-out: T½ (converted)): 15.3 h
Cmax ([2]; plasma, po, 100 mg, single oral dose 100 mg, healthy volunteers, final mean, read-out: Cmax): 388 ng/mL
half-life ([2]; plasma, po, 100 mg, single oral dose 100 mg, healthy volunteers, final mean, read-out: T½ (converted)): 18 h
Cmax ([2]; plasma, po, 100 mg, single oral dose 100 mg, healthy volunteers, preliminary mean, read-out: Cmax): 365 ng/mL
half-life ([2]; plasma, po, 100 mg, single oral dose 100 mg, healthy volunteers, preliminary mean, read-out: T½ (converted)): 15.8 h
AUC(0-inf) ([2]; plasma, single oral dose 1 mg, healthy volunteers, final mean): 183 ng·h/mL
AUC(0-t) ([2]; plasma, single oral dose 1 mg, healthy volunteers, final mean, read-out: AUC0-last): 130 ng·h/mL
AUC ([2]; plasma, single oral dose 1 mg, healthy volunteers, preliminary mean): 161 ng·h/mL
AUC ([2]; plasma, single oral dose 3 mg, healthy volunteers, preliminary mean): 477 ng·h/mL
AUC ([2]; plasma, single oral dose 10 mg, healthy volunteers, preliminary mean): 2110 ng·h/mL
AUC ([2]; plasma, single oral dose 20 mg, healthy volunteers, preliminary mean): 4020 ng·h/mL
AUC(0-inf) ([2]; plasma, single oral dose 50 mg, healthy volunteers, final mean): 8480 ng·h/mL
AUC(0-t) ([2]; plasma, single oral dose 50 mg, healthy volunteers, final mean, read-out: AUC0-last): 6880 ng·h/mL
AUC ([2]; plasma, single oral dose 50 mg, healthy volunteers, preliminary mean): 9180 ng·h/mL
AUC(0-inf) ([2]; plasma, single oral dose 75 mg, healthy volunteers, final mean): 13500 ng·h/mL
AUC(0-t) ([2]; plasma, single oral dose 75 mg, healthy volunteers, final mean, read-out: AUC0-last): 10800 ng·h/mL
AUC ([2]; plasma, single oral dose 75 mg, healthy volunteers, preliminary mean): 12600 ng·h/mL
AUC(0-inf) ([2]; plasma, single oral dose 100 mg, healthy volunteers, final mean): 11100 ng·h/mL
AUC(0-t) ([2]; plasma, single oral dose 100 mg, healthy volunteers, final mean, read-out: AUC0-last): 10900 ng·h/mL
AUC ([2]; plasma, single oral dose 100 mg, healthy volunteers, preliminary mean): 10500 ng·h/mL
half-life ([2]; serum, oral, single dose 1 mg to 100 mg, independent of the dose, read-out: serum elimination half-life (mean t1/2)): 18 to 24 h
Cmax ([2]; serum, po, 3 mg, single oral dose 3 mg, healthy volunteers, final mean, read-out: Cmax): 17.1 ng/mL
half-life ([2]; serum, po, 3 mg, single oral dose 3 mg, healthy volunteers, final mean, read-out: T½ (converted)): 23.6 h
Cmax ([2]; serum, po, 10 mg, single oral dose 10 mg, healthy volunteers, final mean, read-out: Cmax): 69.1 ng/mL
half-life ([2]; serum, po, 10 mg, single oral dose 10 mg, healthy volunteers, final mean, read-out: T½ (converted)): 21.8 h
Cmax ([2]; serum, po, 20 mg, single oral dose 20 mg, healthy volunteers, final mean, read-out: Cmax): 169 ng/mL
half-life ([2]; serum, po, 20 mg, single oral dose 20 mg, healthy volunteers, final mean, read-out: T½ (converted)): 18.9 h
AUC(0-inf) ([2]; serum, single oral dose 3 mg, healthy volunteers, final mean): 534 ng·h/mL
AUC(0-t) ([2]; serum, single oral dose 3 mg, healthy volunteers, final mean, read-out: AUC0-last): 401 ng·h/mL
AUC(0-inf) ([2]; serum, single oral dose 10 mg, healthy volunteers, final mean): 2380 ng·h/mL
AUC(0-t) ([2]; serum, single oral dose 10 mg, healthy volunteers, final mean, read-out: AUC0-last): 1650 ng·h/mL
AUC(0-inf) ([2]; serum, single oral dose 20 mg, healthy volunteers, final mean): 4440 ng·h/mL
AUC(0-t) ([2]; serum, single oral dose 20 mg, healthy volunteers, final mean, read-out: AUC0-last): 3600 ng·h/mL
AUC(0-t) ([2]; plasma, oral, 100 mg daily dose, read-out: mean AUC0-last): ~10900 ng·h/mL
Tmax ([2]; plasma, oral, 100 mg daily dose): ~6.2 h
AUC(0-t) ([2]; plasma, oral, single 1 mg daily dose, read-out: mean AUC0-last): ~130 ng·h/mL
Tmax ([2]; plasma, oral, single 1 mg daily dose): ~6.1 h
AUC(0-t) ([2]; plasma, oral, single 3 mg daily dose, read-out: mean AUC0-last): 235 to 400 ng·h/mL
Tmax ([2]; plasma, oral, single 3 mg daily dose): ~5.5 h
AUC(0-t) ([2]; plasma, oral, single 10 mg daily dose, read-out: mean AUC0-last): 840 to 1640 ng·h/mL
Tmax ([2]; plasma, oral, single 10 mg daily dose): 4.8 to 6 h
AUC(0-t) ([2]; plasma, oral, single 20 mg daily dose, read-out: mean AUC0-last): 1960 to 3600 ng·h/mL
Tmax ([2]; plasma, oral, single 20 mg daily dose): ~5.2 h
AUC(0-t) ([2]; plasma, oral, single 50 mg daily dose, read-out: mean AUC0-last): ~6880 ng·h/mL
Tmax ([2]; plasma, oral, single 50 mg daily dose): ~4.8 h
AUC(0-t) ([2]; plasma, oral, single 75 mg daily dose, read-out: mean AUC0-last): ~10800 ng·h/mL
Tmax ([2]; plasma, oral, single 75 mg daily dose): ~6 h
dose proportionality of Cmax and AUC ([2]; single doses 1 to 100 mg, slightly lower than expected exposure at 100 mg): increased proportionally up to the 75 mg dose
lag time ([2]; single oral dose, healthy volunteers): 2 to 4 h
changes in the gastric mucosa ([3]; cynomolgus monkey, repeat dosing 4 weeks, 3, 10, 100, 1000 mg/kg/day): necrosis of the surface epithelium and atrophy of the fundic glands and edema and inflammatory infiltrates in the lamia propria of the fundus
muscle degeneration/necrosis in femoral, lower thigh or multifides muscles ([3]; cynomolgus monkey, repeat dosing 4 weeks, lesions partly present before dosing and in a control): one or more monkeys in all dose groups
CK and aldolase levels ([3]; cynomolgus monkey, elevated levels also present prior to the first dose): Elevated levels of CK and aldolase
reversibility of gastric mucosa changes ([3]; high dose monkeys, on drug withdrawal): not entirely
half-life ([4]; dogs, single intravenous administration as the monomaleate salt, read-out: terminal elimination half-life (t1/2) (converted)): 2.7 h
bioavailability ([4]; oral administration, read-out: absolute bioavailability): 52%

Source: patent US20110224226A1, “COMPOSITIONS AND METHODS FOR INCREASING BLOOD PLATELET LEVELS IN HUMANS” (AKARX, Inc., priority 2006, published 2011)
